Converted amounts (≈) assume the structure as drawn. Read-outs that look alike come from different tables or passages of the source. Where a SMILES comes first, the peptide text is derived from it. Bridges are numbered along the chain shown (N, C = ends). The star is where a group is joined. Palmitoyl = CCCCCCCCCCCCCCCC(=O)*
What was measured:
[1] = tested on: Staphylococcus aureus ATCC 25923; assay type: cell-based
In short: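 MIC = lowest lipopeptide concentration (range 0.5–256 μg/mL) with no noticeable growth, scored by eye. Bacteria tested in MHB at 5 × 10^5 CFU/mL for 18 h; Candida in RPMI-1640 + 2% D-glucose at 2 × 10^3 CFU/mL for 24 h; both at 37 °C.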

[2] = tested on: Staphylococcus aureus ATCC 25923; assay type: cell-based; remark: listed apart in the source
In short: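 24 h biofilm (37 °C; 5.0 × 10^5 CFU/mL bacteria, 2.0 × 10^5 CFU/mL fungi) → PBS pH 7.4 wash ×3 → cpd 0.5–256 μg/mL, 24 h, 37 °C → resazurin 1 h, A570/A600. Cutoff ≤10% reduction.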

[3] = tested on: Staphylococcus aureus ATCC 25923; settings: values marked *: performed by the group in the previous study; ref [29]; cited from earlier work
Description: Table 3 Antibiofilm activity of lipopeptides. | column: MBEC (μg/mL) / S. aureus

[4] = tested on: keratinocytes; settings: reported in the literature; ref [13]; cited from earlier work
Description: However, an identical hemolysis pattern is consistent only with peptides L4, C4, L7, and C7. A common feature of these compounds is the presence of arginine residue in the second and third position, which differentiates them from the rest of compounds used in this study. Overall effect of disulfide cyclization on hemolysis seems to be dependent on arginine(s) position. In general, disulfide cyclization of lipopeptides results in the reduced cytotoxicity a ...

[5] = tested on: E. coli ML-35 (ATCC 43827); assay type: cell-based, Escherichia coli
[6] = tested on: Candida albicans ATCC 10231; assay: Transmission electron microscopy (TEM); assay type: cell-based; settings: 2 × MIC, 5.0 × 10^6 CFU/mL, 1 h at room temperature
Description: TEM was used to examine ultrastructural changes in the Candida albicans ATCC 10231 cells treated with selected lipopeptides (L2, C2, L4, C4) and melittin (positive control). Fungal cells (Candida albicans ATCC 10231) were incubated in RMPI-1640 overnight. The cells were centrifuged (3500 rpm, 7 min) and resuspended in fresh RMPI-1640 medium to obtain dense cell suspension (5.0 × 10^6 CFU/mL). The high cell-density culture was prepared to facilitate TEM observations. Peptides’ concentrations were 2 × MIC. Samples were incubated for 1 h at room temperature. Importantly, MIC of selected peptides (L2, C2, L4, C4, and melittin) were also determined with dense inoculum of yeasts (5.0 × 10^6 CFU/mL). After the treatment, the fungal cells were centrifuged (3500× rpm, 10 min) and washed twice with PBS. Fungal cells were fixed with 2.5% glutaraldehyde buffered at pH 6.5 with 0.1 M sodium cacodylate (Polysciences, Warrington, PA, USA) for 6 h at room temperature. Postfixation was performed with a 1% osmium tetroxide (Polysciences, Warrington, PA, USA) solution for 2 h at 4 °C. The cells were then centrifuged and resuspended in 0.1 M cacodylate buffer (pH 6.5). After re-centrifugation, cells were dehydrated with ethanol. Yeasts were embedded in Epon 812 resin (Sigma-Aldrich) at room temperature. An ultramicrotome Leica UC7 was used to prepare ultrathin sections (55 nm). […]

Structure (SMILES) | MIC S. aureus ([1]; ATCC 25923, 18 h) | MBEC S. aureus ([2]; ATCC 25923, 24 h) | MBEC S. aureus [3] | further results
CCCCCCCCCCCCCCCC(=O)N[C@@H](CCCNC(=N)N)C(=O)N[C@@H](CCCNC(=N)N)C(=O)N[C@@H](CCCCN)C(=O)N[C@@H](CCCCN)C(N)=O [L7, C16-RRKK-NH2] (Palmitoyl-RRKK-NH2) | 4 µg/mL (≈ 4.85 µM) | 128 µg/mL | – | –
CCCCCCCCCCCCCCCC(=O)N[C@@H](CCCCN)C(=O)N[C@@H](CCCCN)C(=O)N[C@@H](CCCCN)C(N)=O [L1, C16-KKK-NH2] | – | – | 64 * μg/mL | toxicity against keratinocytes [4]: 3.2 µg/mL
CCCCCCCCCCCCCCCC(=O)N[C@@H](CCCCN)C(=O)N[C@@H](CCCCN)C(=O)N[C@@H](CCCNC(=N)N)C(=O)N[C@@H](CCCCN)C(N)=O [L5, C16-KKRK-NH2] (Palmitoyl-KKRK-NH2) | – | – | 32 * μg/mL | –
CCCCCCCCCCCCCCCC(=O)N[C@H]1CSSC[C@@H](C(N)=O)NC(=O)[C@H](CCCCN)NC(=O)[C@H](CCCCN)NC(=O)[C@H](CCCCN)NC1=O [C1, C16-CKKKC-NH2] (Palmitoyl-CKKKC-NH2; disulfide 1-5) | – | – | 64 * μg/mL | –
CCCCCCCCCCCCCCCC(=O)N[C@H]1CSSC[C@@H](C(N)=O)NC(=O)[C@H](CCCCN)NC(=O)[C@H](CCCCN)NC(=O)[C@H](CCCCN)NC(=O)[C@H](CCCCN)NC1=O [C2, C16-CKKKKC-NH2] (Palmitoyl-CKKKKC-NH2; disulfide 1-6) | – | – | – | MIC S. aureus ([1]; broth microdilution (CLSI), MHB, 5 × 10^5 CFU/mL, 37 °C, 18 h, visual, triplicate): 32 µg/mL (≈ 32.9 µM); MBEC S. aureus ([2]; 24 h biofilm on polystyrene plates, 24 h exposure at 37 °C, resazurin, triplicate): 64 µg/mL; MIC against E. coli ML-35 [5]: 8 µg/mL (≈ 8.23 µM)
CCCCCCCCCCCCCCCC(=O)N[C@H]1CSSC[C@@H](C(N)=O)NC(=O)[C@H](CCCNC(=N)N)NC(=O)[C@H](CCCCN)NC(=O)[C@H](CCCCN)NC(=O)[C@H](CCCCN)NC1=O [C6, C16-CKKKRC-NH2] (Palmitoyl-CKKKRC-NH2; disulfide 1-6) | – | – | 64 * μg/mL | –
CCCCCCCCCCCCCCCC(=O)N[C@@H](CCCNC(=N)N)C(=O)N[C@@H](CCCCN)C(=O)N[C@@H](CCCCN)C(=O)N[C@@H](CCCCN)C(N)=O [L3, C16-RKKK-NH2] (Palmitoyl-RKKK-NH2) | – | – | 64 * μg/mL | –
CCCCCCCCCCCCCCCC(=O)N[C@H]1CSSC[C@@H](C(N)=O)NC(=O)[C@H](CCCCN)NC(=O)[C@H](CCCCN)NC(=O)[C@H](CCCNC(=N)N)NC(=O)[C@H](CCCCN)NC1=O [C4, C16-CKRKKC-NH2] (Palmitoyl-CKRKKC-NH2; disulfide 1-6) | 16 µg/mL (≈ 16 µM) | 64 µg/mL | – | MIC against E. coli ML-35 [5]: 8 µg/mL (≈ 8 µM); ultrastructural changes in TEM micrographs [6]: numerous vesicles are visible inside and outside the cell
CCCCCCCCCCCCCCCC(=O)N[C@@H](CCCCN)C(=O)N[C@@H](CCCCN)C(=O)N[C@@H](CCCCN)C(=O)N[C@@H](CCCCN)C(N)=O [L2, C16-KKKK-NH2] (Palmitoyl-KKKK-NH2) | 16 µg/mL (≈ 20.8 µM) | 64 µg/mL | – | MIC against E. coli ML-35 [5]: 4 µg/mL (≈ 5.21 µM)
CCCCCCCCCCCCCCCC(=O)N[C@@H](CCCCN)C(=O)N[C@@H](CCCCN)C(=O)N[C@@H](CCCCN)C(=O)N[C@@H](CCCNC(=N)N)C(N)=O [L6, C16-KKKR-NH2] (Palmitoyl-KKKR-NH2) | – | – | 32 * μg/mL | –
CCCCCCCCCCCCCCCC(=O)N[C@H]1CSSC[C@@H](C(N)=O)NC(=O)[C@H](CCCCN)NC(=O)[C@H](CCCCN)NC(=O)[C@H](CCCCN)NC(=O)[C@H](CCCNC(=N)N)NC1=O [C3, C16-CRKKKC-NH2] (Palmitoyl-CRKKKC-NH2; disulfide 1-6) | – | – | 128 * μg/mL | –
CCCCCCCCCCCCCCCC(=O)N[C@@H](CCCCN)C(=O)N[C@@H](CCCNC(=N)N)C(=O)N[C@@H](CCCCN)C(=O)N[C@@H](CCCCN)C(N)=O [L4, C16-KRKK-NH2] (Palmitoyl-KRKK-NH2) | 8 µg/mL (≈ 10 µM) | 64 µg/mL | – | MIC against E. coli ML-35 [5]: 4 µg/mL (≈ 5.02 µM)
CCCCCCCCCCCCCCCC(=O)N[C@H]1CSSC[C@@H](C(N)=O)NC(=O)[C@H](CCCCN)NC(=O)[C@H](CCCNC(=N)N)NC(=O)[C@H](CCCCN)NC(=O)[C@H](CCCCN)NC1=O [C5, C16-CKKRKC-NH2] (Palmitoyl-CKKRKC-NH2; disulfide 1-6) | – | – | 128 * μg/mL | –
CCCCCCCCCCCCCCCC(=O)N[C@H]1CSSC[C@@H](C(N)=O)NC(=O)[C@H](CCCCN)NC(=O)[C@H](CCCCN)NC(=O)[C@H](CCCNC(=N)N)NC(=O)[C@H](CCCNC(=N)N)NC1=O [C7, C16-CRRKKC-NH2] (Palmitoyl-CRRKKC-NH2; disulfide 1-6) | 8 µg/mL (≈ 7.78 µM) | 128 µg/mL | – | –

Reference: PMC7582905, “Effect of Disulfide Cyclization of Ultrashort Cationic Lipopeptides on Antimicrobial Activity and Cytotoxicity” (International Journal of Molecular Sciences, 2020)
